In BindingDB's records for patent US12378251 (Shanghai Institute Of Materia Medica, 2025):

Biological target: NEDD8-activating enzyme E1 regulatory subunit/NEDD8-activating enzyme E1 catalytic subunit (Human, UniProt Q8TBC4)
Test: Test of Inhibiting NAE Enzyme Activity at the Molecular Level
Description: 1. Preliminary Evaluation Experiment of Inhibiting NAE Enzyme Activity at the Molecular Level by CompoundsHomogeneous Time-Resolved Fluorescence (HTRF) technology was used to detect the in vitro inhibitory effect of the compound on NAE enzyme activity. […] IC50 was calculated with a GraphPad software.

NEDD8-activating enzyme E1 regulatory subunit/NEDD8-activating enzyme E1 catalytic subunit, sequence (Q13564 whole entry): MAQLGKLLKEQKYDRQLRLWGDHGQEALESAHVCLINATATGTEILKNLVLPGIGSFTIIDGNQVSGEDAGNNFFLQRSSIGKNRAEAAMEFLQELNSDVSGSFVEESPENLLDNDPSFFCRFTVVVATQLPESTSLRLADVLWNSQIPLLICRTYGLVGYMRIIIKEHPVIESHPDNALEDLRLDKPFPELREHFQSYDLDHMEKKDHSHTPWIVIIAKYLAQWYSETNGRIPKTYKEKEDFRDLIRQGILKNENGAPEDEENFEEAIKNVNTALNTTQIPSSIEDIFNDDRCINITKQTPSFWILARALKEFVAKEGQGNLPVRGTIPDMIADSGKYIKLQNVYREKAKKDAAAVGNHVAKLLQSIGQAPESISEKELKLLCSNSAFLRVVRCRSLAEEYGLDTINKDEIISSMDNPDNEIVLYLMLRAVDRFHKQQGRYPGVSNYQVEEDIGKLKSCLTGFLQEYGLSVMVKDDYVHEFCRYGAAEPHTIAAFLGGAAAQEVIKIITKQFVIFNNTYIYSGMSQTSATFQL
NEDD8-activating enzyme E1 regulatory subunit/NEDD8-activating enzyme E1 catalytic subunit, sequence (Q8TBC4 whole entry): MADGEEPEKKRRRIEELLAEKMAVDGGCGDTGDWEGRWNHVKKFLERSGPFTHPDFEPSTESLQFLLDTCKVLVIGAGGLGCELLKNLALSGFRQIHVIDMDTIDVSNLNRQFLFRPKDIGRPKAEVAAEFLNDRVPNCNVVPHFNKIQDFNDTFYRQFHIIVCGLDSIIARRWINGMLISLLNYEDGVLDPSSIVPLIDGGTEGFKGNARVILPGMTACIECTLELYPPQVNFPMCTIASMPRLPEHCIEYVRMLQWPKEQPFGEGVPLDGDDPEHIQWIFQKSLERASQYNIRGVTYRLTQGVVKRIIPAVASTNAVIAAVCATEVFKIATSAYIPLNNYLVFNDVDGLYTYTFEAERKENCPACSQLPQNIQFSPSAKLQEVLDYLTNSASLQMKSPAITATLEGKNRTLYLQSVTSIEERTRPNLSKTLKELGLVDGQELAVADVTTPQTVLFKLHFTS

Structure (SMILES)	IC50 [nM]
NS(=O)(=O)OCC1CC(n2nnc3c(Nn4ccc5ccccc54)ncnc32)CC1O (centres undefined) [US12378251, Compound S18]	> 1000
NS(=O)(=O)OCC1CC(n2nnc3c(NCc4ccccc4F)ncnc32)CC1O (centres undefined) [US12378251, Compound S2]	< 100
NS(=O)(=O)OCC1CC(n2nnc3c(Nc4n[nH]c5ccccc45)ncnc32)CC1O (centres undefined) [US12378251, Compound S17]	> 1000
NS(=O)(=O)OCC1CC(n2nnc3c(NCc4cccs4)ncnc32)CC1O (centres undefined) [US12378251, Compound S3]	< 100
NS(=O)(=O)OCC1CC(n2nnc3c(NCc4ccco4)ncnc32)CC1O (centres undefined) [US12378251, Compound S4]	< 100
NS(=O)(=O)OCC1CC(n2nnc3c(NC4CCCC4)ncnc32)CC1O (centres undefined) [US12378251, Compound S21]	> 1000
COC(=O)[C@H]1C=C[C@@H](Nc2ncnc3c2nnn3C2CC(O)C(COS(N)(=O)=O)C2)C1 (some centres undefined) [US12378251, Compound S20]	< 100
NS(=O)(=O)OCC1CC(n2nnc3c(Nc4cnc5ccccn45)ncnc32)CC1O (centres undefined) [US12378251, Compound S19]	> 1000
NS(=O)(=O)OCC1CC(n2nnc3c(NCCc4ccccc4)ncnc32)CC1O (centres undefined) [US12378251, Compound S6]	< 100
NS(=O)(=O)OCC1CC(n2nnc3c(N[C@@H]4c5ccccc5C[C@@H]4O)ncnc32)CC1O (some centres undefined) [US12378251, Compound S9]	< 100
NS(=O)(=O)OCC1CC(n2nnc3c(N[C@H]4CC5(CCNCC5)c5ccccc54)ncnc32)CC1O (some centres undefined) [US12378251, Compound S14]	< 100
CCCCCCNc1ncnc2c1nnn2C1CC(O)C(COS(N)(=O)=O)C1 (centres undefined) [US12378251, Compound S8]	< 100
NS(=O)(=O)OCC1CC(n2nnc3c(N[C@H]4CCc5ccccc54)ncnc32)CC1O (some centres undefined) [US12378251, Compound S1]	< 100
NS(=O)(=O)OC[C@@H]1C[C@@H](n2nnc3c(N[C@@H]4C[C@H]4c4ccc(F)c(F)c4)ncnc32)CC1O (some centres undefined) [US12378251, Compound S16]	> 1000
